In brackets after ≈: the same amount, converted by molar mass. Where two headings read alike, the source gives them in different places.
Experiments:
[1] = system: E. coli NCTC 13353 (CTX-M15, OXA-1); assay: Antibacterial activity, MIC by agar dilution (CLSI); format: cell-based; conditions: Escherichia coli, read-out: MIC
Method in brief: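 CLSI agar dilution on Mueller Hinton agar containing doubling compound dilutions, inoculated at about 10^4 CFU/spot from fresh cultures. Plates were incubated 18 h at 37 °C in ambient air before growth scoring. MIC is reported in mcg/ml.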

[2] = system: K. pneumoniae H521 (KPC, SHV, TEM); assay: as above; format: cell-based; conditions: Klebsiella pneumoniae, read-out: MIC
Method in brief: (§1)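 Agar dilution per CLSI on Mueller Hinton agar with doubling compound dilutions, about 10^4 CFU/spot by multipoint inoculator. Plates incubated 16-20 h at 35±2° C in ambient air; procedure also gives 37° C for 18 h. MIC (mcg/ml) scored as growth or no growth.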

[3] = molecular target: T1, Class D beta-lactamase, A. baumannii NCTC 13301 (OXA 23) (Acinetobacter baumannii, UniProt Q9L4P2); assay: Beta-lactamase enzyme inhibition (nitrocefin, crude enzyme); format: biochemical; conditions: Class D A. baumannii NCTC 13301 (OXA 23); read-out: Beta-lactamase enzyme inhibition IC50
T1 construct: preincubated mixture of crude enzyme and the agents; endogenous in cells; host or cells: A. baumannii NCTC 13301
Method in brief: (§2)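 Crude enzyme preincubated with inhibitor 10 min at 37 °C, then nitrocefin (100 uM) added for 5 min. Absorbance read at 485 nm; IC50 obtained from sigmoidal dose-response fit of absorbance versus concentration.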

[4] = system: K. pneomoniae S48 (NDM, SHV, TEM); assay: Antibacterial activity, MIC by agar dilution (CLSI); format: cell-based, K. pneumoniae; conditions: Klebsiella pneumoniae; Table 2; K. pneomoniae S48 (NDM, SHV, TEM); read-out: MIC
Method in brief: as §1

[5] = system: T2, Class C beta-lactamase, E. coli M50 (CMY/DHA); format: biochemical; conditions: read-out: Beta-lactamase enzyme inhibition IC50
T2 construct: no borders, tags or purification printed
Method in brief: as §2

[6] = system: E. coli NCTC 13352; assay: Antibacterial activity, MIC by agar dilution (CLSI); format: cell-based; conditions: Escherichia coli, NCTC13352, Table 3
Method: (§3) The biological activity of representative compounds according to the invention against various bacterial strains was investigated. In a typical study, overnight grown bacterial cultures were diluted appropriately and inoculated on the agar media containing doubling dilutions of the test compounds. Observations for growth or no growth was performed after 16-20 hours of incubation at 35±2° C. in the ambient air. The overall procedure was performed as per Clinical and Laboratory Standards Institute (CLSI) recommendations, (Clinical and Laboratory Standards Institute (CLSI), Performance Standards for Antimicrobial Susceptibility Testing, 20th Informational Supplement, M07-A9, Volume 32, No. 2, 2012). Molten Mueller Hinton Agar (BD, USA) containing serial dilutions of each antibacterial agent were poured on to the plates and allowed to solidify. Appropriate suspensions from the freshly grown cultures were prepared in normal saline so that about 10^4 CFU/spot of the organism was delivered on to the drug containing agar plates using automated multipoint inoculator (Mast, UK). The plates were incubated in Biochemical oxygen demand (BOD) incubator at 37° C. for 18 hours and then examined for growth.
(§4) Table 3 details the antibacterial activity of representative compound of Formula (I), Sodium salt of (2S,5R)-Sulfuric acid mono-[2-(N′-(4-hydroxyphenyl-acetyl)-hydrazinocarbonyl)-7-oxo-1,6-diaza-bicyclo[3.2.1]oct-6-yl]ester (Compound of Example 1) and Sodium salt of (2S,5R)-Sulfuric acid mono-[2-(N′-(pyridine-2-yl-acetyl)-hydrazinocarbonyl)-7-oxo-1,6-diaza-bicyclo[3.2.1]oct-6-yl] ester (Compound of Example 8), against various Multi Drug Resistant (MDR) Gram-negative bacterial strains.

[7] = system: K. pneumoniae S 21; assay: as above; format: cell-based; conditions: Klebsiella pneumoniae, S21, Table 3
Method: as §3, §4

[8] = system: E. cloacae M 20; assay: as above; format: cell-based; conditions: Enterobacter cloacae, M20, Table 3
Method: as §3, §4

[9] = system: K. pneumoniae B 88; assay: as above; format: cell-based; conditions: Klebsiella pneumoniae, B88, Table 3
Method: as §3, §4

[10] = system: C. frundaii 58 MP; assay: as above; format: cell-based; conditions: Table 3
Method: as §3, §4

[11] = system: E. coli M 50; assay: as above; format: cell-based; conditions: Escherichia coli, M50, Table 3
Method: as §3, §4

[12] = system: E. coli 7 MP; assay: as above; format: cell-based; conditions: Escherichia coli, Table 3
Method: as §3, §4

[13] = system: P. aeruginosa R 20; assay: as above; format: cell-based; conditions: Pseudomonas aeruginosa, R20, Table 3
Method: as §3, §4

[14] = system: P. aeruginosa ATCC 27853; assay: as above; format: cell-based; conditions: Pseudomonas aeruginosa, ATCC27853, Table 3
Method: as §3, §4

[15] = system: K. pneumoniae H 525; assay: as above; format: cell-based; conditions: Klebsiella pneumoniae, H525, Table 3
Method: as §3, §4

[16] = system: P. aeruginosa PAO1; assay: as above; format: cell-based; conditions: Pseudomonas aeruginosa, Table 3
Method: as §3, §4

[17] = system: E. coli M 49; assay: as above; format: cell-based; conditions: Escherichia coli, M49, Table 3
Method: as §3, §4

[18] = system: E. coli NCTC 13351; assay: as above; format: cell-based; conditions: Escherichia coli, NCTC13351, Table 3
Method: as §3, §4

[19] = system: P. aeruginosa 2779; assay: as above; format: cell-based; conditions: Pseudomonas aeruginosa, Table 3
Method: as §3, §4

[20] = NCTC13353, Table 2, E. Coli NCTC 13353 (CTX-M15, OXA-1)
[21] = NCTC13353, Table 3, E. coli NCTC 13353
[22] = Table 2, K. pneumoniae H521 (KPC, SHV, TEM)

T1 sequence (Q9L4P2 18-273): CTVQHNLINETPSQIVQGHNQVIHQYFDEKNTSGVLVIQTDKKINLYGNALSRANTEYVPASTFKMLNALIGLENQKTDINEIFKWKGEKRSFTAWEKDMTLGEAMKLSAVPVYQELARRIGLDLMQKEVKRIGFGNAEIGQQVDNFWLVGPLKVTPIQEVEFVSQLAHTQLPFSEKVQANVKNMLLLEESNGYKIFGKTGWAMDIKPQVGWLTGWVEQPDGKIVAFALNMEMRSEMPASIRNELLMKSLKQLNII

SMILES	MIC [1, 20] [µg/mL]	MIC [1, 21] [µg/mL]	MIC [2, 22] [µg/mL]	MIC ([2]; Table 3, K. pneumoniae H 521) [µg/mL]	IC50 [3] [nM]	MIC [4] [µg/mL]	IC50 [5] [nM]	MIC [6] [µg/mL]	MIC [7] [µg/mL]	MIC [8] [µg/mL]	MIC [9] [µg/mL]	MIC [10] [µg/mL]	MIC [11] [µg/mL]	MIC [12] [µg/mL]	MIC [13] [µg/mL]	MIC [14] [µg/mL]	MIC [15] [µg/mL]	MIC [16] [µg/mL]	MIC [17] [µg/mL]	MIC [18] [µg/mL]	other results
O=C(Cc1ccc(O)cc1)NNC(=O)[C@@H]1CC[C@@H]2CN1C(=O)N2OS(=O)(=O)[O-].[Na+] [Example 1, Sodium Salt of (2S,5R)-Sulfuric Acid mono-[2-(N′-(4-hydroxyphenyl-acetyl)-hydrazinocarbonyl)-7-oxo-1,6-diaza-bicyclo[3.2.1]oct-6-yl]ester]	0.5	0.5	1	1	315	0.5	5	0.25	2	1	0.5	32	0.5	1	> 32	> 32	0.5	> 32	2	0.25	MIC [19]: > 32 µg/mL
NCCOc1ccccc1CC(=O)NNC(=O)[C@@H]1CC[C@@H]2CN1C(=O)N2OS(=O)(=O)O [Example 2, (2S,5R)-Sulfuric Acid mono-[2-(N′-{2-[2-(2-amino-ethoxy)-phenyl]-acetyl}-hydrazinocarbonyl)-7-oxo-1,6-diaza-bicyclo[3.2.1]oct-6-yl]ester]	1 (≈ 2.19 µM)	0.5 (≈ 1.09 µM)	1 (≈ 2.19 µM)	2 (≈ 4.37 µM)	3770	1 (≈ 2.19 µM)	122	1 (≈ 2.19 µM)	2 (≈ 4.37 µM)	2 (≈ 4.37 µM)	> 32	16 (≈ 35 µM)	1 (≈ 2.19 µM)	2 (≈ 4.37 µM)	> 32	> 32	1 (≈ 2.19 µM)	> 32	2 (≈ 4.37 µM)	1 (≈ 2.19 µM)	MIC [19]: > 32 µg/mL
